Data published in PMC11962429, “Unraveling human transferrin-tryptamine interactions: a computational and biophysical approach to Alzheimer’s disease therapeutics” (Frontiers in Pharmacology, 2025).

Target: T1, Human transferrin (Htf) (Homo sapiens, UniProt P02787)
T1 construct: gene TF; single-chain glycoprotein of 679 amino acids (mature plasma protein)
Test: intrinsic fluorescence quenching, modified Stern-Volmer
Assay type: binding
Details: 5 μM protein, sodium phosphate (PBS) buffer, excitation 280 nm, emission 300-400 nm, ligand 1-10 μM from DMSO stock; pH and temperature not given

T1 sequence (P02787 20-698): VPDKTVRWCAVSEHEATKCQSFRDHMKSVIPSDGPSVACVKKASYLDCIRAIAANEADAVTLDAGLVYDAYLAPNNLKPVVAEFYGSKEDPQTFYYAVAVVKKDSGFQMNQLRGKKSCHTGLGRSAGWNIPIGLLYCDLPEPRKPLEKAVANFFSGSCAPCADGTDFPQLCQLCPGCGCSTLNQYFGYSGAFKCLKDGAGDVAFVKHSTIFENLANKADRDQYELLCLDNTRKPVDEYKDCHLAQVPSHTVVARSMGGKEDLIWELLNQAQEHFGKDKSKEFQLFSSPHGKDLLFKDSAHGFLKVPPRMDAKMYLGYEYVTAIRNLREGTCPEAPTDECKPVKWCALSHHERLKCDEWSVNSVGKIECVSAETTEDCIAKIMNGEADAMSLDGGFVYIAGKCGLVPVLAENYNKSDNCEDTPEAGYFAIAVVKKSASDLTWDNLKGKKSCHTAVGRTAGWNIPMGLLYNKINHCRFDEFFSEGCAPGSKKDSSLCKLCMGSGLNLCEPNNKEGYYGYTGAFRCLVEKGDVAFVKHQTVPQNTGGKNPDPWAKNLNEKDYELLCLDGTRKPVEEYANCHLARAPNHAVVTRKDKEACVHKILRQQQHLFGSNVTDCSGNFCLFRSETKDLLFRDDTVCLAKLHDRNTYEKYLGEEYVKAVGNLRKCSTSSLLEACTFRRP

Q: With `NCCc1c[nH]c2ccccc12` [Tryptamine] as the molecule, how does the K read?
A: 480000 M⁻¹
